Test results: patent publication US5288723A, “A composition and a method of using veratridine and epinephrine as a local anesthetic” (priority 1991, dated 1994)
Entries after “also recorded” stand apart in the source; their conditions may differ.

Legend:
angiotensin II receptors = settings: reported by Ball et al.; cited from earlier work
rat sciatic nerve = assay: Motor block of rat sciatic nerve in vivo (toe curling and/or foot dragging); set-up: species or system Male Sprague-Dawley rats
rabbit vagus nerve = assay: Extracellular recording of compound action potentials (APc), vagus nerve as a whole; set-up: species or system New Zealand white rabbit
Method: Adult male New Zealand white rabbits (3±0.5 kg) were pretreated intramuscularly with a mixture of ketamine (200 mg), xylazine (20 mg) and atropine (0.4 mg) for sedation. Ten minutes after this treatment, the animals were anesthetized with diethyl ether. After cessation of respiration, a longitudinal skin incision was made, and the cervical portion of both vagus nerves was dissected. The vagus nerves were temporarily stored at room temperature (22° C.) in a beaker containing modified HEPES Liley (HL) solution stirred constantly by aeration with a mixture of 95% oxygen and 5% carbon dioxide.
The modified HL solution used for bathing the nerve and subsequent drug perfusion consisted of (in mM): NaCl, 118.0; KCl, 5.0; CaCl2 2H2 0, 2.0; MgCl2 6H2 0, 1.0; α-D(+)-glucose, 11.0; NaHC03, 25.0; and N-2-hydroxy-ethylpiperazine-N-2-ethanesulfonic acid (HEPES) buffer, 5.0 mM. The pH was adjusted to 7.4±0.05 by addition of 1 N NaOH. The perfusion solution was bubbled with a gas mixture of 95% oxygen and 5% carbon dioxide at a vigorous rate just before flowing onto the nerve. The pH was stabilized by the HEPES buffer and maintained at 7.4.
VTD free base (no. V-5754, lot 58F-7828, Sigma, St. Louis, Mo.) was stored in a desiccator below 0° C. and was used to prepare a 2 mM stock solution in dimethyl sulfoxide [DMSO], Fisher Scientific, lot 861316), which also was stored at below 0° C. VTD, a steroidal alkaloid (FIG. 2A) that is produced by certain lilies, has a solubility limited to approximately 10^-3 M in aqueous slat solutions [Kupchan and By, "The Veratrum Group," in Alkaloids, Vol. 10, Manske, R.H.F. (ed.), New York, Academic Press (1968), pp. 193-285]. The stock VTD solution was diluted to final concentrations of 0.2-10 μM by the addition of HL. The maximum equivalent content of DMSO is 0.5%, and in three control experiments we detected no change in electrophysiologic behavior with 1% DMSO.
The nerves were cleaned and desheathed by microdissection before mounting in an airtight chamber (FIG. 2B) [Gissen et al., Anesthesiology 53:467-474 (1980)]. Petroleum jelly (White Petrolatum, Denison Laboratories) seals separated a central, 11-mm length of the nerve from the lateral pools, used for stimulating and recording with electrodes made of platinum wire. The central section of the chamber (volume 0.25 ml) was perfused with HL solution at 0.5 ml.min.^-1. The lateral pools containing the moistened ends of the nerves adsorbed to the electrodes were filled with paraffin oil. […] Thus, measured APc s were conducted in nerve exposed to drug for half of the conduction pathway, and had been conducting through drug-free medium over a distance containing at least two or three nodes of Ranvier (in the fastest-conducting fibers), before reaching the recording electrodes. […]

[1] = aqueous slat solutions; limited to approximately; cited from earlier work

Compound: COc1ccc(C(=O)OC2CCC3(C)C4CCC5C6(O)CC(O)C7(O)C(CN8CC(C)CCC8C7(C)O)C6(O)CC53OC24O)cc1OC (centres unmarked) [VTD, veratridine]
- Inhibition of angiotensin II receptors (angiotensin II receptors): selective inhibitor of angiotensin II receptors
- Duration of motor block (summary) (rat sciatic nerve; VTD alone, 0.2-0.7 mM, approximately): 100 to 300 min
- fraction block, MOTOR (rat sciatic nerve; [VTD] 0.2 mM, 0.1 ml): 8/10
- onset, MOTOR (rat sciatic nerve; [VTD] 0.2 mM, 0.1 ml, mean ± SEM): 13 ± 2 min
- fraction block, MOTOR (rat sciatic nerve; [VTD] 0.7 mM, 0.1 ml): 5/10
- Duration of nerve block compared with bupivacaine and lidocaine (rat sciatic nerve; rat sciatic nerve): longer duration than both
- Fiber preference of impulse inhibition (rabbit vagus nerve; VTD alone, use-dependent): highly preferential for C-fibers
- Time to recover from VTD-induced use-dependent effects (rabbit vagus nerve; after termination of rapid stimulation): tens of seconds
- Effect of VTD added to a nerve during recovery from bupivacaine (rabbit vagus nerve; residual bupivacaine block): potentiated rather than antagonized the residual block
- Effect on impulses conducted in response to a single stimulus (rabbit vagus nerve; single stimuli, 0.5 μM): only a small effect; also recorded: unaffected
- Solubility [1]: approximately 10^-3 M
